Source: ChEMBL document CHEMBL1201862, “PubChem BioAssay data set” (2004)
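Compound exposure: 48 hours, 5 concentrations, 96-well plates. GI50 marks 50% less growth.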 The source made the active and inactive calls. Cut-off read from the data, not from the text of the source: active = GI50 up to about 1.1 µM and inactive = higher.

Columns and labels:
Assay in all cases: NCI anticancer screen, dose series, 48 h
ACHN = test system: ACHN
CCRF-CEM = test system: CCRF-CEM
COLO 205 = test system: COLO 205
DU-145 = test system: DU-145
EKVX = test system: EKVX
HCT-15 = test system: HCT-15
HL-60 = test system: HL-60
IGROV-1 = test system: IGROV-1
KM12 = test system: KM12
LOX IMVI = test system: LOX IMVI
MDA-N = test system: MDA-N
NCI-H226 = test system: NCI-H226
NCI-H460 = test system: NCI-H460
NCI-H522 = test system: NCI-H522
SF-268 = test system: SF-268
SK-MEL-28 = test system: SK-MEL-28
SK-OV-3 = test system: SK-OV-3
SN12C = test system: SN12C
TK-10 = test system: TK-10
U-251 = test system: U-251

Structure (SMILES) | GI50 (ACHN) | GI50 (CCRF-CEM) | GI50 (COLO 205) | GI50 (DU-145) | GI50 (EKVX) | GI50 (HCT-15) [µM] | GI50 (HL-60) | GI50 (IGROV-1) | GI50 (KM12) | GI50 (LOX IMVI) | GI50 (MDA-N) | GI50 (NCI-H226) | GI50 (NCI-H460) | GI50 (NCI-H522) | GI50 (SF-268) | GI50 (SK-MEL-28) | GI50 (SK-OV-3) | GI50 (SN12C) | GI50 (TK-10) | GI50 (U-251)
C[C@H]1[C@H](C)CC[C@]2(C(=O)OC3OC(CO)C(O)C(O)C3O)CC[C@]3(C)C(=CC[C@@H]4[C@@]5(C)C[C@@H](O)[C@@H]6OC(=O)c7cc(O)c(O)c(O)c7-c7c(cc(O)c(O)c7O)C(=O)OC[C@@]6(CO)[C@@H]5CC[C@]43C)[C@H]12 (stereo not given in full) | > 100 µM (inactive) | 43.5 µM (inactive) | > 100 µM (inactive) | > 100 µM (inactive) | > 100 µM (inactive) | 76.7 | 39.2 µM (inactive) | > 100 µM (inactive) | 58.6 µM (inactive) | 17.8 µM (inactive) | 21.5 µM (inactive) | > 100 µM (inactive) | 98.6 µM (inactive) | > 59.3 µM (inactive) | > 100 µM (inactive) | > 100 µM (inactive) | 98.6 µM (inactive) | 59.7 µM (inactive) | > 100 µM (inactive) | 60.4 µM (inactive)
COC(=O)/C=C1/OC(c2ccc(Br)cc2)=C(Br)C1=O | 7.23 µM (inactive) | 1.82 µM (inactive) | 1.89 µM (inactive) | 12.7 µM (inactive) | 13.2 µM (inactive) | 5.14 | 2.06 µM (inactive) | 6.34 µM (inactive) | 8.07 µM (inactive) | 3.84 µM (inactive) | 5.26 µM (inactive) | 14.4 µM (inactive) | 14.5 µM (inactive) | 3.94 µM (inactive) | 6.93 µM (inactive) | 12 µM (inactive) | 19.9 µM (inactive) | 6.92 µM (inactive) | 6.59 µM (inactive) | 2.57 µM (inactive)
CS(=O)(=O)OCCN(CCOS(C)(=O)=O)c1ccc(/C=N/c2ccc(-c3csc(Cc4ccccc4)n3)cc2)c(Cl)c1 | 30.7 µM (inactive) | 10.1 µM (inactive) | 15.1 µM (inactive) | 30.4 µM (inactive) | 36.5 µM (inactive) | 30.3 | 11.1 µM (inactive) | 18.2 µM (inactive) | 28.6 µM (inactive) | 20.1 µM (inactive) | 21.6 µM (inactive) | 0.218 µM (active) | 0.387 µM (active) | > 43.4 µM (inactive) | 27.4 µM (inactive) | 45.1 µM (inactive) | 43.5 µM (inactive) | 28.8 µM (inactive) | 3.93 µM (inactive) | 28.2 µM (inactive)
OC1(c2cccs2)c2cccc(Cl)c2C(O)(c2cccs2)c2c(Cl)cccc21 (stereo not given) | > 100 µM (inactive) | 93.3 µM (inactive) | > 100 µM (inactive) | > 100 µM (inactive) | > 100 µM (inactive) | > 100 | > 100 µM (inactive) | 88.5 µM (inactive) | > 100 µM (inactive) | > 100 µM (inactive) | > 100 µM (inactive) | > 100 µM (inactive) | > 100 µM (inactive) | 96.6 µM (inactive) | 22.3 µM (inactive) | > 100 µM (inactive) | 81.5 µM (inactive) | 93.8 µM (inactive) | > 100 µM (inactive) | 26.6 µM (inactive)
